Data reported in article PMC9138545, “Incorporation of Oxidized Phenylalanine Derivatives into Insulin Signaling Relevant Proteins May Link Oxidative Stress to Signaling Conditions Underlying Chronic Insulin Resistance” (Biomedicines, 2022).
Entries after “also recorded” stand apart in the source; their conditions may differ.

Legend:
3T3-L1 adipocytes [1] = experiment: HPLC of non-protein-bound intracellular tyrosines; type: cell-based, mouse; conditions: 5 or 25 mmol/L glucose, with or without 400 nmol/L insulin
Procedure: (§1) Early passages of mouse embryo fibroblast (3T3-L1) (ATCC, Manassas, VA, US) were cultured in Dulbecco’s modified Eagle medium (DMEM, Sigma Aldrich, Budapest, Hungary, CAT number: D6046; Invitrogen, Waltham, MA, USA, CAT number: 41966-029) supplemented with 100 U/mL penicillin, 0.1 mg/mL streptomycin (Gibco, Budapest, Hungary, CAT number: 15070-063) and 10% heat-inactivated Fetal Bovine Serum (FBS, Gibco, CAT number: 16170-078), supplemented with 398 nM p-, m-, or o-Tyr (equimolar to the original p-Tyr content of the medium) purchased from Sigma (CAT number: para-Tyr: T8566, m-Tyr: T3629, o-Tyr: 93851). Media contained 25 or 5 mmol/L glucose (experiment dependent) pyruvate and L-glutamine. Cells were grown at 37 °C and 5% CO2. Adipocyte differentiation was achieved by DMEM supplemented with 10% FBS (Gibco, Csertex, Budapest, Hungary, CAT number: 10106-169) (FBS) and a […] insulin (Sigma Aldrich, Budapest, Hungary, CAT number: I 9278), […] isobuthylmethylxanthine (Sigma Aldrich, Budapest, Hungary, CAT number: I 5879), and 250 nmol/L dexamethasone (Sigma Aldrich, Budapest, Hungary, CAT number: 861871) containing cocktail. From day 4 onward, cultures were maintained in DMEM containing 1.5 μg/mL insulin and 10% FBS with a medium change every other day until experimental treatments were started. After 90% of the cell population reached the adipocyte phenotype, prior to all treatments, cells were incubated overnight in serum-deprived medium. Experimental treatment was performed in serum-deprived medium containing 200 or 400 nmol/L insulin, for 5 min.
To measure the total intracellular non-protein-bound tyrosine concentration, prior to the freezing of samples overnight at −70 °C to achieve cell lysis, 200 μL distilled water was added to each. After melting up, samples were centrifuged for 15 min at 15,000 rpm. A total of 200 µL of the supernatant was mixed with 200 µL of 60% trichloroacetic acid. After 30 min incubation on ice, samples were centrifuged again at 15,000 rpm for 15 min. Then, the supernatant was filtered and was diluted 5-fold and then 160 µL distilled water was added to 40 µL of filtrate, followed by the injection of the mixture onto the HPLC column.
The amounts of p-, o-, m-Tyr and Phe in the samples were determined by measuring their autofluorescence. Thus, no derivatization or staining was needed. Samples were measured on a Shimadzu Class 10 HPLC system equipped with an RF-10 AXL fluorescent detector (Shimadzu USA Manufacturing Inc., Canby, OR, USA). The mobile phase consisted of 1% sodium acetate and 1% acetic acid dissolved in water. The separation took place on a LiChroCHART 250-4 column (Merck KGaA, Darmstadt 64271, Germany) in an isocratic run. Wavelengths of 275 nm for excitation and 305 nm for emission were used to assess p-, o- and m-Tyr, while Phe was detected at 258 nm excitation and 288 nm emission wavelengths. Determination of the area under the curve (AUC) plus external standard calibration was used to calculate the precise concentrations of the amino acids.

[2] = tested on: GLUT4 and vimentin in podocytes; experiment: Immunofluorescence of GLUT4 and vimentin in insulin-treated podocytes; type: cell-based, human; conditions: 400 nmol/l insulin for 10 min
Procedure: (§2) The conditionally immortalized human podocyte cell line (provided by Moin Saleem, University of Bristol, UK) was cultured in RPMI1640 medium (R8756, Sigma Aldrich, Budapest, Hungary) supplemented with 10% heat-inactivated FBS (16170-078, Gibco, Budapest, Hungary), insulin-transferrin-selenium supplement (41400-045, Gibco), 100 U/mL penicillin, 0.1 mg/mL streptomycin (P4333, Sigma), and […] (equimolar to the original p-Tyr content of the medium) para-, meta-, or ortho-Tyr. The cells were grown at 33 °C 5% CO2, and when they reached 40–60% confluency they were transferred to 37 °C to differentiate. Following the thermoswitching, cells were kept on RPMI1640 medium containing 2% FBS, antibiotics, and different tyrosines. Before every treatment, cells were incubated in serum-deprived medium overnight.
(§3) In a 6-well plate, 104 cells were cultured on glass coverslips washed with alcohol and dried under UV light. The podocyte cells were grown in RPMI1640 medium supplemented with 10% heat-inactivated FBS at 33 °C, 5% CO2. When they reached 60% confluence, the medium was changed to RPMI1640 medium containing 2% FBS and 112.05 nM of the different tyrosine isoforms, then the plates were transferred to 37 °C, 5% CO2 to allow the cells to differentiate. The different tyrosine isoforms were added to the maintenance medium. The cells were serum deprived overnight, then incubated with 400 nmol/l insulin for 10 min. After removal of the medium, the coverslips were washed twice with PBS. The cells were fixed at room temperature in 2% paraformaldehyde and 4% sucrose for 8 min, then permeabilized using 0.3% Trion X-100 in 1xPBS for 20 min and blocked in 2.5% BSA for 45 min [45]. The primary antibody was diluted in 1xPBS, and the cells were incubated in it for 60 min in humid conditions. The antibodies we used were mouse anti-WT1 antibody (H-1) (1:100, Santa Cruz Biotechnology, Dallas, TX, USA), chicken anti-vimentin antibody (1:100, Abcam), rabbit anti-glucose transporter GLUT4 antibody (1:100, Abcam, Cambridge, UK), mouse Insulin Receptor Substrate-1 antibody (1:100, Invitrogen, Waltham, MA, USA), and rabbit anti-phospho-Insulin Receptor Substrate-1 (pTyr612) antibody (1:10, Sigma). Coverslips were washed in PBS three times for 5 min in PBS and incubated in the fluorophore-conjugated secondary antibodies anti-goat, anti-chicken, secondary antibody Alexa fluor 647, anti-rabbit Alexa fluor 350, and anti-mouse Alexa Fluor 488 (1:10, Invitrogen) for 60 min. Samples were then washed in PBS three times for 5 min and mounted in Vectashield (Vector Laboratories). Images were taken with a Nikon Eclipse Ti2 microscope.

3T3-L1 adipocytes [3] = experiment: Isotope glucose uptake (deoxy-D-glucose 2-[1 2-3H(N)]) in differentiated 3T3-L1 adipocytes; type: cell-based, mouse
Procedure: as §1
Initially, cells were kept in glucose-free DMEM (Gibco, Csertex, Budapest, Hungary) for 30 min and then were treated with 2, 20, 200, or 400 nmol/L insulin for 100 min. Concurrently, 1 μCi/mL deoxy-D-glucose 2-[1 2-3H(N)] (3.7 × 104 Bq/mL) (Izotóp Intézet, Budapest, Hungary) was added to the plates for 100 min. After scraping the cells into the medium, they were centrifuged for 5 min at 1000 rpm. We dissolved the sediment in 70 μL of lysis buffer, then glucose uptake was determined by scintillation counting by measuring 30 μL of the sample, using a Beckman LS 5000 TD counter, in counts per minute (CPM), for five minutes each, with average activity was used as the outcome. Following freezing overnight at −70 °C, protein concentration was measured with a Hitachi spectrophotometer. Results were normalized for protein content.

p-IRS-1 in podocytes = experiment: Immunofluorescence of p-IRS-1 in insulin-treated podocytes; type: cell-based, human; conditions: 400 nmol/l insulin for 10 min
Procedure: as §2, §3

[4] = tested on: IR kinase (989–1382, fused to GST); experiment: IR kinase phosphorylation assay, capillary electrophoresis; type: biochemical; conditions: 200 μM peptide, 875 nM IR kinase, 1 mM ATP, 5 mM MgCl2, pH 7.5
Procedure: Enzymatically active IR kinase (989–1382, fused to GST and produced in SF9 cells) was ordered from SinoBiological (catalog number 11081-H20B1). The stock solution was aliquoted and frozen separately to preserve activity. Prior to comparative measurements, the activity of recombinant IR kinase was tested on internal control peptides and found to be suitable for kinase assays.
The kinase assay mixture contained 200 μM peptide (GRKGSGDYMPMSPKV) and 875 nM IR kinase in kinase buffer (20 mM potassium phosphate (monobasic), 15 mM sodium phosphate (dibasic), 103 mM NaCl, 5 mM MgCl2, 5% glycerol, 0.05% Igepal; pH 7.5). The reaction was initialized by addition of 1 mM ATP. The phosphatase reaction mixture contained 80 μM peptide (GRKGSGD(phosphoY)MPMSPKV) in buffer (50 mM TRIS, 150 mM NaCl, 1 mM EDTA and 2 mM DTT; pH 7.4). The reaction was initialized by addition of 25 nM PTP1B enzyme. Equal aliquots of the kinase or the phosphatase reaction mixture were subjected to capillary electrophoresis analysis at the indicated time points after the start the reaction.
Background electrolyte (BGE) components phosphoric acid and triethylamine were purchased from Sigma (St. Louis, MO, USA) and from Merck GmbH (Darmstadt, Germany), respectively. Capillary electrophoresis was performed with an Agilent Capillary Electrophoresis 3DCE system (Agilent Technologies, Waldbronn, Germany) applying DB-WAX coated capillary having a 33.5 cm total and 25 cm effective length with 50 μm I.D. (Agilent Technologies, Santa Clara, CA, USA). On-line absorption at 200 nm was monitored by DAD UV-Vis detector. The capillary was thermostated at 25 °C. Before measurements, the capillary was rinsed subsequently with distilled water for 15 min and between measurements with BGE (100 mM trimethylamine-phosphate buffer; pH 2.5) for 3 min. Samples were injected by 5 × 10^3 Pa pressure for 6 s. Runs were performed in the positive-polarity mode with 20 kV.

IRS-1 (Tyr612) = experiment: Western blot, activating phosphorylation of IRS-1 (Tyr612); type: cell-based; conditions: 400 nmol/L insulin; adipocytes, HEK cells, podocytes, macrophages; n = 4–8
Procedure: as §1, §2
(§4) HEK-293 immortalized cell line (ATCC, Manassas, VA, USA) of epithelial morphology and the J774A.1 mouse BALB/C monocyte-macrophage cell lines (91051511-1VL, Sigma Aldrich, Budapest, Hungary) were cultured in Petri dishes with a medium composed of Dulbecco’s modified Eagle’s medium (DMEM, Sigma Aldrich, Budapest, Hungary, CAT number: D6046, Invitrogen, CAT number: 41966-029), with a 10% heat-inactivated FBS supplementation (16170-078, Gibco), insulin-transferrin-selenium supplement (41400-045, Gibco, Budapest, Hungary,), 100 U/mL penicillin and 0.1 mg/mL streptomycin (P4333, Sigma) and 398 nM para (5 and 25 mmol/L), meta-, or ortho-Tyr (T8566, T3629, 93851, Sigma). Before treatment, cells were incubated in serum-deprived medium overnight as well. […]
(§5) The samples of lysates were vortexed and centrifuged (10 min, 13,000 rpm, at 4 °C). Protein content of the samples was determined by the Lowry method using bovine serum albumin as a standard. […]

Akt (Ser473) = experiment: Western blot, activating phosphorylation of Akt (Ser473); type: cell-based; conditions: 400 nmol/L insulin; adipocytes, HEK cells, podocytes, macrophages; n = 4–8
Procedure: as §1, §2, §4, §5

N[C@@H](Cc1ccc(O)cc1)C(=O)O [p-Tyr, para-tyrosine, reference compound]
cellular uptake of amino acids (non-protein-bound intracellular content) (3T3-L1 adipocytes [1]): continuous uptake of amino acids which was independent of glucose concentration (5 or 25 mmol/L) and the presence of insulin
GLUT4 membrane localization [2]: characteristic localization of GLUT-4 positivity; also recorded: GLUT4 aggregates are transported to the membrane
reversal of inhibitory effect of o- and m-Tyr on glucose uptake (3T3-L1 adipocytes [3]; increasing p-Tyr concentrations, with or without 400 nmol/L insulin, n = 10): ameliorated by increasing concentrations of p-Tyr
membrane translocation of IRS-1 / p-IRS-1 (p-IRS-1 in podocytes): clearly demonstrated; also recorded: located in the membrane
p-IRS-1 intensity (p-IRS-1 in podocytes; vs. p-Tyr): more intense

GRKGSGDF(2-hydroxy)MPMSPKV [o-tyrosine containing peptides, unphosphorylated ortho-tyrosine IRS-1 YXXM motif peptide]
phosphorylation by IR kinase [4]: neither o- nor m-tyrosine containing peptides are substrates for the IR kinase
phosphorylation by IR kinase ([4]; listed as ortho-tyrosine peptides): very poor substrates

GRKGSGDF(3-hydroxy)MPMSPKV [m-tyrosine containing peptides, unphosphorylated meta-tyrosine IRS-1 YXXM motif peptide]
phosphorylation by IR kinase [4]: neither o- nor m-tyrosine containing peptides are substrates for the IR kinase
phosphorylation by IR kinase ([4]; listed as meta-tyrosine peptides): very poor substrates

GRKGSGDF(4-hydroxy)MPMSPKV [p-Tyr containing “natural” peptide, unphosphorylated para-tyrosine IRS-1 YXXM motif peptide]
phosphorylation by IR kinase [4]: efficiently phosphorylated

insulin: insulin (Sigma Aldrich, I 9278)
insulin-induced glucose uptake, time dependence (3T3-L1 adipocytes [3]; 200 nmol/L insulin, cells grown 1, 2, 3, 4, 5 or 12 days with p-, m- or o-Tyr, n = 5–8): approximately two-fold
insulin-induced glucose uptake, 5 mmol/L glucose (3T3-L1 adipocytes [3]; 2, 20, 200, 400 nmol/L insulin, 5 mmol/L glucose, medium with p-, m- or o-Tyr): marked increase in glucose uptake in 5 mmol/L glucose
insulin-induced IRS-1 phosphorylation (IRS-1 (Tyr612)): approximately two-fold
insulin-induced Akt phosphorylation (Akt (Ser473)): approximately two-fold
